Calls of active or inactive are those of the source. The calls are words filed in the database; no cut-off is given here.
What was measured:
[1] = Inhibition of NLRP3 inflammasome activation in LPS/ATP-stimulated male C57BL/6J mouse BMDM cells assessed as inhibition of IL-1beta secretion […] for 4 hrs followed by compound administration for 30 mins and measured after 1 hrs of ATP addition by ELISA; type: cell-based
[2] = Cytotoxicity against male C57BL/6J mouse BMDM cells; type: functional
BMDM [3] = experiment: Inhibition of NLRC4 inflammasome activation in LPS/flagellin-stimulated male C57BL/6J mouse BMDM cells assessed as inhibition of IL-1beta secretion pretreated with LPS followed by compound addition for 4 hrs and measured after 2 hrs of Salmonella typhimurium flagellin addition by ELISA; type: cell-based; conditions: time 6.0 hrs
BMDM [4] = experiment: Inhibition of AIM2 inflammasome activation in LPS/Poly dA:dT-stimulated male C57BL/6J mouse BMDM cells assessed as inhibition of IL-1beta secretion pretreated with LPS followed by compound addition for 4 hrs and measured after 4 hrs of Poly dA:dT addition by ELISA; type: cell-based; conditions: time 8.0 hrs
BMDM [5] = experiment: Inhibition of NLRP3 inflammasome activation at initiation phase in LPS/ATP-stimulated male C57BL/6J mouse BMDM cells assessed as inhibition of TNF-alpha secretion […] for 4 hrs followed by compound administration for 30 mins and measured after 1 hrs of ATP addition by ELISA; type: cell-based; conditions: time 1.5 hrs
[6] = target: Nlrp3/Pycard (Mus musculus) (UniProt Q8R4B8+Q9EPB4); experiment: Inhibition of NLRP3-ASC protein-protein interaction in LPS/ATP stimulated male C57BL/6J mouse BMDM cells by co-immunoprecipitation based Western blot analysis; type: cell-based
Chain of Nlrp3/Pycard (Mus musculus) (Q8R4B8 whole entry, looked up): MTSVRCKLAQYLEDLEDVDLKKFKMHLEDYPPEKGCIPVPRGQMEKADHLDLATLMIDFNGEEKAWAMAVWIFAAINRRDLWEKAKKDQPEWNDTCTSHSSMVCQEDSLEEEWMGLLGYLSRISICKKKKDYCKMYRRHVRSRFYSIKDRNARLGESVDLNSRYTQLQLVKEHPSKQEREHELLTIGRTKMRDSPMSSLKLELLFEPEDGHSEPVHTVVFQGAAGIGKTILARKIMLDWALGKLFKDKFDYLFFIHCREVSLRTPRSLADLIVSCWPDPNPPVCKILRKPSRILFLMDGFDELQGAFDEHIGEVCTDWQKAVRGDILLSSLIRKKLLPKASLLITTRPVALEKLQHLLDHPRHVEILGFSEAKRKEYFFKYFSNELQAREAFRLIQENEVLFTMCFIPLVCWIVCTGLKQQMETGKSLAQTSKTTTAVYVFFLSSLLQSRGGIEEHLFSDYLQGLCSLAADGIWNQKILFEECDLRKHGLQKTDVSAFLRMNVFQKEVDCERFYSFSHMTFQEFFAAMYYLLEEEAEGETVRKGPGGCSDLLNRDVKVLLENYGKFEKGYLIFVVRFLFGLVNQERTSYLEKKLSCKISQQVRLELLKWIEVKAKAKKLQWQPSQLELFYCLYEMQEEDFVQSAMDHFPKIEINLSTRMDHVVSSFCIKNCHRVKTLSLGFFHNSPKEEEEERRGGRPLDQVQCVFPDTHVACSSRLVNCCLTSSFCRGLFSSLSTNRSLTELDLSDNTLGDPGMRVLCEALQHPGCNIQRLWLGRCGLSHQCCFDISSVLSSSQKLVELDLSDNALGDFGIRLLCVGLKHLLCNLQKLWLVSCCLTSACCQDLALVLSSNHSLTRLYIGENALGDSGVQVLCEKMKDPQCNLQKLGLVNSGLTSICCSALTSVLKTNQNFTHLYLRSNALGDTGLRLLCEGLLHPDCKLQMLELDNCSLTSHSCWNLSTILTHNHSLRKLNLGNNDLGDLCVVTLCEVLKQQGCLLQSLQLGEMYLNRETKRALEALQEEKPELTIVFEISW
Chain of Nlrp3/Pycard (Mus musculus) (Q9EPB4 whole entry, looked up): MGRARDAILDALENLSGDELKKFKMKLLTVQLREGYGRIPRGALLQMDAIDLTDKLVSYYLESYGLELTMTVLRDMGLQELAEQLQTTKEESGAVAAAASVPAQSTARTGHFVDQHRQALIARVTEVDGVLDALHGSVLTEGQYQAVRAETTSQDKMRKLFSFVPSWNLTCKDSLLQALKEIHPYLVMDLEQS

[7] = Cmax in male ICR (CD-1) mouse at 20 mg/kg, po by LC-MS/MS analysis; type: ADME, organism-based; conditions: in vivo
[8] = AUClast in male ICR (CD-1) mouse at 20 mg/kg, po by LC-MS/MS analysis; type: ADME, organism-based; conditions: in vivo
[9] = Half-life in male ICR (CD-1) mouse at 5 mg/kg, iv by LC-MS/MS analysis; type: ADME, organism-based; conditions: in vivo
[10] = target: NACHT, LRR and PYD domains-containing protein 3 (Mus musculus) (UniProt Q8R4B8); experiment: In vivo inhibition of NLRP3 inflammasome activation in LPS/ATP-induced acute peritonitis male C57BL/6J mouse model assessed as reduction in IL-1beta level in serum preadministered orally with compound for 1 hrs followed by LPS addition for 2 hrs and measured 12 hrs post ATP administration by ELISA; type: functional, organism-based; conditions: dose 1-20 mg/kg, route po, time 13.0 hrs
Chain of NACHT, LRR and PYD domains-containing protein 3 (Mus musculus) (Q8R4B8 whole entry, the tested form may be a part): as the sequence (Q8R4B8 whole entry, looked up) above

Mus musculus [11] = experiment: Effect on TNF-alpha level in serum of LPS/ATP-induced acute peritonitis male C57BL/6J mouse model at 1 to 20 mg/kg, po preadministered with compound for 1 hrs followed by LPS addition for 2 hrs and measured 12 hrs post ATP administration by ELISA; type: functional, organism-based; conditions: dose 1-20 mg/kg, time 13.0 hrs
Mus musculus [12] = experiment: Antidiabetic activity in HFD-fed STZ-induced diabetic kidney disease male C57BL/6J mouse model assessed as reduction in tubular basement membrane thickening in kidney at 20 mg/kg fed with high fat diet for 4 weeks followed by STZ administration for 5 days and measured 6 weeks post compound administration via gavage by histological analysis; type: functional, organism-based
Mus musculus [13] = experiment: Antidiabetic activity in HFD-fed STZ-induced diabetic kidney disease male C57BL/6J mouse model assessed as improvement of glucose tolerance at 20 mg/kg fed with high fat diet for 4 weeks followed by STZ administration for 5 days further administered with compound via gavage for 6 weeks and measured after 120 mins of glucose administration by OGTT; type: functional, organism-based; conditions: time 60600.0 min
Mus musculus [14] = experiment: Antidiabetic activity in HFD-fed STZ-induced diabetic kidney disease male C57BL/6J mouse model assessed as reduction in macrophage infiltration in kidney at 20 mg/kg fed with high fat diet for 4 weeks followed by STZ administration for 5 days and measured 6 weeks post compound administration via gavage by F4/80 immunostaining based analysis; type: functional, organism-based
Mus musculus [15] = experiment: Antidiabetic activity in HFD-fed STZ-induced diabetic kidney disease male C57BL/6J mouse model assessed as reduction in LDL-C level in serum at 20 mg/kg fed with high fat diet for 4 weeks followed by STZ administration for 5 days and measured 6 weeks post compound administration via gavage; type: functional, organism-based
[16] = Drug uptake in brain of male C57BL/6J mouse at 20 mg/kg, po administered as single dose and measured after 8 hrs by LC-MS/MS analysis; type: ADME, organism-based; conditions: in vivo
[17] = Drug uptake in heart of male C57BL/6J mouse at 20 mg/kg, po administered as single dose and measured after 8 hrs by LC-MS/MS analysis; type: ADME, organism-based; conditions: in vivo
[18] = Drug uptake in lung of male C57BL/6J mouse at 20 mg/kg, po administered as single dose and measured after 8 hrs by LC-MS/MS analysis; type: ADME, organism-based; conditions: in vivo
[19] = Drug uptake in gastrointestinal tract of male C57BL/6J mouse at 20 mg/kg, po administered as single dose and measured after 8 hrs by LC-MS/MS analysis; type: ADME, organism-based; conditions: in vivo
Mus musculus [20] = experiment: Anti-colitis activity in DSS-induced acute ulcerative colitis male C57BL/6J mouse model assessed as reduction in body weight loss at 5 mg/kg, po preadministered with DSS for 7 days followed by 3 days of drinking water and measured after 10 days of compound administration; type: functional, organism-based; conditions: time 10.0 day
Mus musculus [21] = experiment: Anti-colitis activity in DSS-induced acute ulcerative colitis male C57BL/6J mouse model assessed as improvement in stool consistency at 0.2 to 5 mg/kg, po preadministered with DSS for 7 days followed by 3 days of drinking water and measured after 10 days of compound administration; type: functional, organism-based; conditions: dose 0.2-5 mg/kg, time 10.0 day
Mus musculus [22] = experiment: Anti-colitis activity in DSS-induced acute ulcerative colitis male C57BL/6J mouse model assessed as reduction in fecal bleeding at 0.2 to 5 mg/kg, po preadministered with DSS for 7 days followed by 3 days of drinking water and measured after 10 days of compound administration; type: functional, organism-based; conditions: dose 0.2-5 mg/kg, time 10.0 day
Mus musculus [23] = experiment: Anti-colitis activity in DSS-induced acute ulcerative colitis male C57BL/6J mouse model assessed as decrease in disease activity index score at 0.2 to 5 mg/kg, po preadministered with DSS for 7 days followed by 3 days of drinking water and measured after 10 days of compound administration; type: functional, organism-based; conditions: dose 0.2-5 mg/kg, time 10.0 day
Mus musculus [24] = experiment: Anti-colitis activity in DSS-induced acute ulcerative colitis male C57BL/6J mouse model assessed as reduction in crypt necrosis in colon at 0.2 to 5 mg/kg, po preadministered with DSS for 7 days followed by 3 days of drinking water and measured after 10 days of compound administration by H and E staining based analysis; type: functional, organism-based; conditions: dose 0.2-5 mg/kg, time 10.0 day
Mus musculus [25] = experiment: Anti-colitis activity in DSS-induced acute ulcerative colitis male C57BL/6J mouse model assessed as reduction in histologic severity score at 0.2 to 5 mg/kg, po preadministered with DSS for 7 days followed by 3 days of drinking water and measured after 10 days of compound administration; type: functional, organism-based; conditions: dose 0.2-5 mg/kg, time 10.0 day
Mus musculus [26] = experiment: Effect on TNF-alpha level in serum of DSS-induced acute ulcerative colitis male C57BL/6J mouse model at 0.2 to 5 mg/kg, po preadministered with DSS for 7 days followed by 3 days of drinking water and measured after 10 days of compound administration by ELISA; type: functional, organism-based; conditions: dose 0.2-5 mg/kg, time 10.0 day

CN1CCC(N(C)S(=O)(=O)NC(=O)Nc2c3c(cc4c2CCC4)CCC3)CC1
IC50 [1]: 106 nM
CC50 [2]: > 100000 nM
inhibition (BMDM [3]): inactive
inhibition (BMDM [4]): inactive
inhibition (BMDM [5]): inactive
inhibition [6]: Active
Cmax [7]: 35500 ng/mL
AUC(0-t) [8]: 57900 ng·h/mL
half-life [9]: 3.63 h
inhibition [10]: Dose-dependent-effect
Activity (Mus musculus [11]): inactive
Activity (Mus musculus [12]): Active
Activity (Mus musculus [13]): inactive
Activity (Mus musculus [14]): Active
Activity (Mus musculus [15]): Active
Drug uptake [16]: Not_active
Drug uptake [17]: Active
Drug uptake [18]: Active
Drug uptake [19]: Active
Activity (Mus musculus [20]): Active; Significant Difference Not Observed
Activity (Mus musculus [21]): Active
Activity (Mus musculus [22]): Active
Activity (Mus musculus [23]): Active
Activity (Mus musculus [24]): Active
Activity (Mus musculus [25]): Active
Activity (Mus musculus [26]): inactive
